{
  "source": "patent US8008077B2",
  "about": "“Photochemical internalization for delivery of molecules into the cytosol” (priority 2000, dated 2011)",
  "key": {"THX cells [1]": {"test_system": "THX cells", "assay": "Light-induced (PCI) transfection of THX cells with pEGFP-N1/polylysine complex, GFP expression by flow cytometry", "assay_type": "cell-based, human", "conditions": "for \"light before\" approach compared with \"light after\" approach, poly-L-lysine mediated transfection: photosensitiser 2 μg/ml TPPS2a or 75 μg/ml TPPS4, pEGFP-N1/PLL complex 4 h", "procedure": "(§1) The human melanoma cell line THX was established from tumour tissue obtained from a patient treated for metastatic malignant melanoma at the Norwegian Radium Hospital (Aamdal et al., 1986., Int. J. Cancer, 37, 579), and grown in RMPI 1640 (Gibco-BRL) supplemented with 10% FCS (Gibco-BRL) and 2 mM glutamine (Gibco-BRL). The human colon carcinoma cell line HCT 116 was obtained from American Type Culture Collection (ATCC no. CCL-247) and grown in RPMI 1640 medium supplemented with 10% foetal calf serum, 100 U/ml penicillin, […] streptomycin and 2 mM glutamine (all Gibco BRL, Paisley, UK).\nTwo different light sources were used for treatment of the cells, both consisting of a bank of 4 fluorescent tubes. […]\n(§2) The cells were trypsinized, centrifuged, resuspended in 400 μl of culture medium and filtered through a 50 μm mesh nylon filter. Then the cells were analyzed by a FACS-Calibur (Becton Dickinson) flow cytometer. […] Fluorescein-fluorescence (for example green Fluorescent protein (GFP)) was measured through a 510-530 nm filter after excitation with an argon laser (200 mW) tuned on 488 nm. AlPcS2a was measured through a 670 nm longpass filter after excitation with a diode laser (50 mW) tuned on 635 nm. […] The data were analysed with CELLQuest Software (Becton Dickinson).\nTHX cells were treated with 20 μg/ml AlPcS2a for 18 hours, washed and incubated in sensitizer-free medium for 3 hours followed by 1 hour incubation with 5 μg pEGFP-N1/polylysine complex before light exposure for 1, 2, 3 or 4 minutes. […] GFP expression was analysed by flow cytometry 48 hours after light exposure. […]\nTHX cells were treated with 20 μg/ml AlPcS2a for 18 hours, washed and incubated in sensitizer-free medium for 4 hours before 3 minutes of light treatment. […] GFP expression was analysed by flow cytometry 48 hours after light exposure. […]"}, "HCT 116 cells [2]": {"test_system": "HCT 116 cells", "assay": "Light-induced (PCI) transfection of HCT 116 cells with pEGFP-N1/polylysine complex, GFP expression by flow cytometry", "assay_type": "cell-based, human", "procedure": "as §1\nTwo different light sources were used for treatment of the cells, both consisting of a bank of 4 fluorescent tubes. Cells treated with TPPS4, TPPS2a, and 3-THPP (Porphyrin Products, Logan, Utah) were exposed to blue light (model 3026; Appl. Photophysics, London, UK) with a light intensity reaching the cells of 1.5 mW/cm^2 while cells treated with AlPcS2a (Porphyrin Products, Logan, Utah) were exposed to red light (Philips TL 20W/09) filtered through a Cinemoid 35 filter with a light intensity reaching the cells of 1.35 mW/cm^2.\n[…] The cells were treated with pEGFP-N1 polylysine complex for 4 hours immediately before or after exposure to light. […]\nas §2\nThe cells were treated with pEGFP-N1/polylysine complex for 4 hours immediately before or after exposure to light as indicated on FIG. 2. The expression of GFP was measured by flow cytometry 2 days after the light exposure. […]"}, "HCT 116 cells [3]": {"test_system": "HCT 116 cells", "assay": "Gelonin toxicity after photochemical treatment, protein synthesis by [3H]-leucine incorporation, HCT 116 cells", "assay_type": "cell-based, human", "conditions": "1 μg/ml gelonin 18 h", "procedure": "(§3) For the treatment with gelonin 25×10^3 cells per well were seeded out into 24-well plates (Nunc, Denmark). The next day 20 μg/ml AlPcS2a was added, and the cells were incubated for 18 h at 37° C. All the procedures after AlPcS2a addition were carried out in subdued light. For the “light before” strategy, the cells were washed from AlPcS2a and incubated in AlPcS2a-free medium for 4 h. Then the cells were exposed to light (as indicated in the figures) before the treatment with 1 μg/ml gelonin for 18 h. For the “light after” strategy the cells were co-incubated with 20 μg/ml AlPcS2a and 1 μg/ml gelonin for 18 h, and washed before exposure to light as indicated in the figure.\n(§4) Non-illuminated cells were treated in a similar way except for illumination. The treated cells were washed once with culture medium and after addition of fresh medium incubated at 37° C. before further analysis. Inhibition of protein synthesis was assayed by [^3H]-leucine incorporation into protein 24 h after light exposure. Illumination was performed from a bench with four light tubes (Philips TL 20W/09) and a long pass filter with a cut off at 550-600 nm. The light intensity reaching the cells was 13.5 W/m^2."}, "[4]": {"test_system": "WiDr human adenocarcinoma", "assay": "PCI with gelonin for treatment of tumours in a mouse in vivo model", "design": "species or system Balb/c (nu/nu) mice", "conditions": "for effect on tumour cure, in words: gelonin alone; for % TUMOUR-FREE MICE 30 DAYS AFTER ILLUMINATION / FRACTION TUMOUR-FREE MICE 30 DAYS AFTER ILLUMINATION: AlPcS2a 10 mg/kg i.p., gelonin 50 μg intratumorally where given", "procedure": "Water and food was given ad libitum. All procedures involving mice were carried out in agreement with the protocols approved by the animal care committee at the Norwegian Radium Hospital, under control by the National Ethical Committee's guidelines on animal welfare. The mice were on average 20-25 g (5-8 weeks old) at the start of the experiments, and we used at least 5 mice per experiment group. The WiDr human adenocarcinoma used in the present study, was propagated by serial transplantation into the Balb/c (nu/nu) mice. The tumours were minced to homogeneity by a scalpel and 20 μl of the solution injected subcutaneously on the right hip of each mouse. The tumour size was measured two or three times per week by measuring two perpendicular diameters. Tumour volume was calculated using the following formula: V=(W^2×L)/2 where W is the width and L the length diameters of the tumours measured. Treatment\nA stock solution of AlPcS2a was diluted to 1.25 mg/ml in PBS and injected intraperitoneally to a final concentration of 10 mg/kg when the tumours had reached a volume of approximately 100 mm^3. 48 h after the injection of AlPcS2a the tumours were exposed for 16 min to red light (see below). Immediately after light exposure gelonin (50 μg total amount in a 2 mg/ml solution, i.e. 25 μl) was injected intratumorally. The mice were kept in the dark for 1 week after the injection of AlPcS2a.\nThe tumours were illuminated with a 150 W halogen lamp (Xenophot HLX64640) filtered with a 580 nm long pass and a 700 nm short pass filter emitting 150 mW/cm^2. The animals were covered with aluminium foil except above the tumour area where a hole in the foil with a diameter 2 mm larger than the tumour diameter had been made. The tumours were exposed to 145 J/cm^2 of light. Tumour volumes were measured two or three times per week as described above. Mice were killed when the tumours reach a diameter of approximately 20 mm. The fraction of tumour-free mice 30 days after illumination was scored (Table 1), and the mean tumour volume in each treatment group was recorded (FIG. 25)."}, "THX cells [5]": {"test_system": "THX cells", "assay": "Gelonin toxicity after photochemical treatment, protein synthesis by [3H]-leucine incorporation, THX cells", "assay_type": "cell-based, human", "procedure": "THX cells were incubated with 20 μg/ml AlPcS2a for 18 hours followed by 4 hours in sensitizer-free medium before exposure to light. The cells were either co-treated with AlPcS2a and 1 μg/ml gelonin, or gelonin (1 μg/ml) was added to the medium immediately after light exposure for 18 hours after which it was removed from the medium as indicated on FIG. 3. Protein synthesis was measured 24 hours after light exposure.\nas §3, §4"}, "[6]": {"conditions": "with light (145 J/cm^2; \"light before\" gelonin)"}},
  "data": [
    {"molecule": "Oc1cccc(-c2c3nc(c(-c4cccc(O)c4)c4ccc([nH]4)c(-c4cccc(O)c4)c4nc(c(-c5cccc(O)c5)c5ccc2[nH]5)C=C4)C=C3)c1", "note": "[3-THPP]", "values": [
      {"measurement": "increase in GFP expression with this photosensitizer", "setting": "THX cells [1]; 0.25 μg/ml 3-THPP 18 h, light before 1 h pEGFP-N1/polylysine complex", "result": "only a minor increase in GFP expression"}
    ]},
    {"molecule": "O=S(=O)(O)c1ccc(-c2c3nc(c(-c4ccc(S(=O)(=O)O)cc4)c4ccc([nH]4)c(-c4ccc(S(=O)(=O)O)cc4)c4nc(c(-c5ccc(S(=O)(=O)O)cc5)c5ccc2[nH]5)C=C4)C=C3)cc1", "note": "[TPPS4]", "values": [
      {"measurement": "\"light before\" approach compared with \"light after\" approach, poly-L-lysine mediated transfection", "setting": "HCT 116 cells [2]; 75 μg/ml TPPS4, text prints THX cells, heading and FIG. 19 HCT 116 cells", "result": "works as well as"},
      {"measurement": "\"light before\" approach compared with \"light after\" approach, poly-L-lysine mediated transfection", "setting": "THX cells [1]", "result": "works slightly better"}
    ]},
    {"molecule": "O=S(=O)(O)c1ccc(-c2c3nc(c(-c4ccc(S(=O)(=O)O)cc4)c4ccc([nH]4)c(-c4ccccc4)c4nc(c(-c5ccccc5)c5ccc2[nH]5)C=C4)C=C3)cc1", "note": "[TPPS2a, Tetraphenylporphine disulfonate]", "values": [
      {"measurement": "\"light before\" approach compared with \"light after\" approach, poly-L-lysine mediated transfection", "setting": "HCT 116 cells [2]; HCT 116 cells, TPPS2a, pEGFP-N1/PLL complex 4 h", "result": "works as well as"},
      {"measurement": "\"light before\" approach compared with \"light after\" approach, poly-L-lysine mediated transfection", "setting": "THX cells [1]", "result": "works as well as"}
    ]},
    {"molecule": "poly-D-lysine", "values": [
      {"measurement": "PCI with the \"light before\" protocol, poly-D-lysine as transfection agent", "setting": "HCT 116 cells [2]; HCT 116 cells, complex with pEGFP-N1, variable irradiation times", "result": "works well"}
    ]},
    {"molecule": "Gelonin: plant toxin which efficiently inhibits protein synthesis when it is present in the cytosol of cells", "values": [
      {"measurement": "toxic effect of gelonin in itself without the PCI treatment", "setting": "HCT 116 cells [3]", "result": "no toxic effect"},
      {"measurement": "\"light before\" strategy compared with \"light after\" method, inhibition of protein synthesis", "setting": "HCT 116 cells [3]; 20 μg/ml AlPcS2a", "result": "works better"},
      {"measurement": "effect on tumour cure, in words", "setting": "[4]; with additional light treatment, without AlPcS2a (group 4)", "result": "no effect"},
      {"measurement": "effect on tumour cure, in words", "setting": "[4]; without light (group 3)", "result": "no effect"},
      {"measurement": "% TUMOUR-FREE MICE 30 DAYS AFTER ILLUMINATION", "setting": "[4]; [6]", "result": 0, "unit": "%"},
      {"measurement": "FRACTION TUMOUR-FREE MICE 30 DAYS AFTER ILLUMINATION", "setting": "[4]; [6]", "result": "0/5"},
      {"measurement": "tumour growth (mean tumour volume)", "setting": "[4]; without light", "result": "grew as fast as in animals given a placebo treatment"},
      {"measurement": "% TUMOUR-FREE MICE 30 DAYS AFTER ILLUMINATION", "setting": "[4]; without light", "result": 0, "unit": "%"},
      {"measurement": "FRACTION TUMOUR-FREE MICE 30 DAYS AFTER ILLUMINATION", "setting": "[4]; without light", "result": "0/8"},
      {"measurement": "toxic effect of gelonin in itself without the PCI treatment", "setting": "THX cells [5]; 1 μg/ml gelonin 18 h", "result": "no toxic effect"},
      {"measurement": "inhibition of protein synthesis compared with photochemical treatment in the absence of gelonin", "setting": "THX cells [5]; 1 μg/ml gelonin before or after photochemical treatment (20 μg/ml AlPcS2a + light), 24 h after light", "result": "significantly greater inhibition of protein synthesis"},
      {"measurement": "\"light before\" strategy compared with \"light after\" method, inhibition of protein synthesis", "setting": "THX cells [5]; 20 μg/ml AlPcS2a, 1 μg/ml gelonin 18 h", "result": "works better"},
      {"measurement": "inhibition of protein synthesis, \"light before\" relative to \"light after\"", "setting": "THX cells [5]; highest light dose", "result": "about 3 fold"}
    ]}
  ]
}
